From ChEMBL document CHEMBL3392969, “SAR156497, an exquisitely selective inhibitor of aurora kinases” (J Med Chem, 2015)

How the values were obtained:
Aurora kinase B = Aurora kinase B (Homo sapiens, UniProt Q96GD4)
Description: Inhibition of poly-histidine tagged full length recombinant aurora B (unknown origin) assessed as phosphorylation of NuMA-histidine substrate by scintillation counting analysis

in vitro [1] = details: human, liver microsomes
Description: Metabolic stability human liver microsomes assessed as stability at 5 uM by LC/MS-MS analysis

in vitro [2] = details: mouse, liver microsomes
Description: Metabolic stability mouse liver microsomes assessed as stability at 5 uM by LC/MS-MS analysis

Cytochrome P450 3A4 = Cytochrome P450 3A4 (Homo sapiens, UniProt P08684)
Description: Inhibition of human recombinant CYP3A4 co-expressed with human P450 reductase/human b5 reductase using 7-benzyloxyquinoline substrate

HeLa [3] = experiment: cells; details: Homo sapiens
Description: (§1) Antiproliferative activity against human HeLa cells assessed as 14C-thymidine incorporation by Micro-Beta radioactivity counting analysis

HeLa [4] = tested on: HeLa
Description: as §1

Cytochrome P450 3A4, sequence (P08684 whole entry): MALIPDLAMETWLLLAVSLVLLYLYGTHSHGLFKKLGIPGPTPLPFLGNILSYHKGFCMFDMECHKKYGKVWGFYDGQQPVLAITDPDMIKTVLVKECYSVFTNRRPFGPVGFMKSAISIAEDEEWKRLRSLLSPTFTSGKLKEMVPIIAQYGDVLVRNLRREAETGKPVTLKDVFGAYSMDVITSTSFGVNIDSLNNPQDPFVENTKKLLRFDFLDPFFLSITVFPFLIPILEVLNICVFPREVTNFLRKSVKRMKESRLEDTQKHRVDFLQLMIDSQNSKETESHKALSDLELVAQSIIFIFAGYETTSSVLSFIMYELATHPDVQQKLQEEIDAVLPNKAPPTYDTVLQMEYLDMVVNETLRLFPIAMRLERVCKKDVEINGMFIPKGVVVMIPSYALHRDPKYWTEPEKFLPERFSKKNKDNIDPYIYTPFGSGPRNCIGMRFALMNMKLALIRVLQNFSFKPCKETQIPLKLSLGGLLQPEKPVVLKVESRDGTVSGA
Aurora kinase B, sequence (Q96GD4 whole entry): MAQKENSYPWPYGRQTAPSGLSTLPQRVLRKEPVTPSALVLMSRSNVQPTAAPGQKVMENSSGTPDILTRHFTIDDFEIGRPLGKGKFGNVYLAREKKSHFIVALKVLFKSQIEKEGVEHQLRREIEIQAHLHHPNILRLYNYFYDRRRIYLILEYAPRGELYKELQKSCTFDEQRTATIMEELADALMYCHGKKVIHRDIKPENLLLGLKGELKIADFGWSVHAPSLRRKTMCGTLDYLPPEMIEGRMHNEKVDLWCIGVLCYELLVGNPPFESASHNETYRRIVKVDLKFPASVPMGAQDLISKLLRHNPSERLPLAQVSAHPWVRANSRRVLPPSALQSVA

Row | IC50 (Aurora kinase B) [nM] | remaining at 5 µM (in vitro [1]) [%] | remaining at 5 µM (in vitro [2]) [%] | IC50 (Cytochrome P450 3A4) [nM] | IC50 (HeLa [3]) [nM] | IC50 (HeLa [4]) [nM] | Structure (SMILES)
1 | 4 | 65 | 30 | 500 | – | – | CCOC(=O)c1[nH]cc2c1NC1=C(C(=O)CN(C(=O)CN)C1)[C@H]2c1ccc(Sc2nc3ccccc3[nH]2)o1
2 | 2 | 66 | 60 | 170 | – | – | CCOC(=O)c1[nH]cc2c1NC1=C(C(=O)CNC1)C2c1ccc(Sc2nc3ccccc3[nH]2)o1 (racemic)
3 | 16 | – | – | – | 8750 | – | O=C1CCCC2=C1C(c1ccc(Sc3nc4ccccc4[nH]3)o1)c1c[nH]c(C(=O)O)c1N2 (single isomer, unassigned; (+))
4 | 6 | 65 | 99 | – | – | – | CCOC(=O)c1[nH]cc2c1NC1=C(C(=O)CN(CC)C1)C2c1ccc(Sc2nc3ccccc3[nH]2)o1 (racemic)
5 | 2 | < 40 | 17 | – | – | – | CCOC(=O)c1[nH]cc2c1NC1=C(C(=O)CN(C(=O)CN)C1)[C@H]2c1ccc(Sc2nc3c(F)cccc3[nH]2)o1
6 | – | – | – | – | > 10000 | – | O=C1CNCC2=C1C(c1cccc(Oc3cc(Cl)cc(Cl)c3)c1)c1c[nH]nc1N2 (racemic)
7 | 5 | – | – | – | 300 | – | O=C1CCCC2=C1C(c1ccc(Sc3nc4ccccc4[nH]3)o1)c1cn[nH]c1N2 (racemic)
8 | – | 58 | 55 | 8400 | – | – | CCOC(=O)c1[nH]cc2c1NC1=C(C(=O)CCC1)C2c1ccc(Sc2nc3cc(F)c(F)cc3[nH]2)o1 (racemic)
9 | 8 | 40 | 37 | 490 | – | – | CCOC(=O)c1[nH]cc2c1NC1=C(C(=O)CCC1)C2c1ccc(Sc2nc3c(O)cccc3[nH]2)o1 (racemic)
10 | 4 | 66 | 36 | 1000 | – | – | CCOC(=O)c1[nH]cc2c1NC1=C(C(=O)CCC1)C2c1ccc(Sc2nc3c(F)cc(F)cc3[nH]2)o1 (configuration not stated)
11 | 180 | – | – | – | 4600 | – | CCOC(=O)c1[nH]cc2c1NC1=C(C(=O)CCC1)C2c1ccc(Sc2nc3ccccc3[nH]2)s1 (racemic)
12 | – | – | – | – | – | 15 | CCOC(=O)c1[nH]cc2c1NC1=C(C(=O)CCC1)C2c1ccc(Sc2nc3ccccc3[nH]2)o1 (racemic)
13 | 127 | – | – | – | 3700 | – | O=C1CCCC2=C1C(c1ccc(Sc3nc4ccccc4[nH]3)o1)c1c[nH]cc1N2 (single isomer, unassigned; (+))
14 | 19 | – | – | – | > 10000 | – | NC(=O)c1[nH]nc2c1NC1=C(C(=O)CCC1)C2c1ccc(Sc2nc3ccccc3[nH]2)o1 (racemic)
15 | – | 73 | 77 | 12000 | – | – | CCOC(=O)c1[nH]cc2c1NC1=C(C(=O)CCC1)C2c1ccc(Sc2nc3cc(F)ccc3[nH]2)o1 (racemic)
16 | 7 | 68 | 85 | 50 | – | – | CCOC(=O)c1[nH]cc2c1NC1=C(C(=O)CCC1)C2c1ccc(Sc2nc3cccc(Cl)c3[nH]2)o1 (racemic)
17 | – | – | – | – | – | 7000 | CCOC(=O)c1[nH]cc2c1NC1=C(C(=O)CCC1)C2c1ccc(Sc2nc3ccccc3[nH]2)o1 (single isomer, unassigned; (-))
18 | – | – | – | – | > 10000 | – | O=C1CNCC2=C1C(c1ccc(Sc3nc4ccccc4[nH]3)o1)c1c[nH]nc1N2 (racemic)
19 | – | 69 | 83 | 190 | – | 16 | CCOC(=O)c1[nH]cc2c1NC1=C(C(=O)CCC1)C2c1ccc(Sc2nc3ccccc3[nH]2)o1 (single isomer, unassigned; (+))
20 | – | – | – | – | > 10000 | – | O=C1CNCC2=C1C(c1cccc(Oc3ccccc3)c1)c1c[nH]nc1N2 (racemic)
21 | 1100 | – | – | – | > 10000 | – | CCOC(=O)c1[nH]cc2c1NC1=C(C(=O)CCC1)C2c1ccnc(Sc2nc3ccccc3[nH]2)c1 (racemic)
22 | – | 49 | 49 | – | – | – | CCOC(=O)c1[nH]cc2c1NC1=C(C(=O)CCC1)C2c1ccc(Sc2nc3cccnc3[nH]2)o1 (racemic)
23 | 7 | – | – | – | 9700 | – | CCOC(=O)c1[nH]cc2c1NC1=C(C(=O)CCC1)C2c1cccc(Sc2nc3ccccc3[nH]2)c1 (racemic)
